From the supplement of paper PMC10307832

What was measured:
Test in all cases: relative viability (nuclei count vs DMSO), 5 days (fraction); higher = more cells survive
Crenolanib + Navitoclax = compound: CC1(COc2ccc3c(c2)ncn3-c2ccc3cccc(N4CCC(N)CC4)c3n2)COC1 [Crenolanib] + CC1(C)CCC(c2ccc(Cl)cc2)=C(CN2CCN(c3ccc(C(=O)NS(=O)(=O)c4ccc(N[C@H](CCN5CCOCC5)CSc5ccccc5)c(S(=O)(=O)C(F)(F)F)c4)cc3)CC2)C1 [Navitoclax] (partner 0.5 µM)
In short: (§1)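 Cells from lung cancer lines were seeded into 1536-well plates and, one day later, dosed by pin tool. Treatments were either a single drug or a fixed dose of an anchor drug with five library-drug doses (not always all listed) in √10 steps. After 5 days, nuclei were stained in a one-step fixation (final 0.05% Triton X-100, 1% formaldehyde, 1 ug/ml Hoechst) and counted on 4× images, and relative viability is the treated-to-vehicle nuclei ratio, as the median of duplicate plates.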

Crenolanib + Foretinib = compound: CC1(COc2ccc3c(c2)ncn3-c2ccc3cccc(N4CCC(N)CC4)c3n2)COC1 [Crenolanib] + COc1cc2c(Oc3ccc(NC(=O)C4(C(=O)Nc5ccc(F)cc5)CC4)cc3F)ccnc2cc1OCCCN1CCOCC1 [Foretinib] (partner 0.25 µM)
In short: as §1

Tivantinib = compound: O=C1NC(=O)[C@@H](c2cn3c4c(cccc24)CCC3)[C@@H]1c1c[nH]c2ccccc12 [Tivantinib]
In short: (§2)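 Acceptance criteria were a control CV below 25% and at least one doubling per plate. Lung cancer cell lines in 1536-well plates got five library-drug doses (not always all listed) √10 apart by pinning and were left 5 days with no medium change. Viability divides treated-well nuclei by vehicle-well nuclei and is the median across plates. Nuclei were counted by MetaXpress from 4× Hoechst images.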

Crenolanib = compound: CC1(COc2ccc3c(c2)ncn3-c2ccc3cccc(N4CCC(N)CC4)c3n2)COC1 [Crenolanib]
In short: as §2

Cell Line | relative viability (Crenolanib + Navitoclax; first compound 0.01 µM) | relative viability (Crenolanib + Navitoclax; first compound 0.03162 µM) | relative viability (Crenolanib + Navitoclax; first compound 0.1 µM) | relative viability (Crenolanib + Navitoclax; first compound 0.3162 µM) | relative viability (Crenolanib + Navitoclax; first compound 1 µM) | relative viability (Crenolanib + Foretinib; first compound 0.01 µM) | relative viability (Crenolanib + Foretinib; first compound 0.03162 µM) | relative viability (Crenolanib + Foretinib; first compound 0.1 µM) | relative viability (Crenolanib + Foretinib; first compound 0.3162 µM) | relative viability (Crenolanib + Foretinib; first compound 1 µM) | relative viability (Tivantinib; 0.01 µM) | relative viability (Tivantinib; 0.03162 µM) | relative viability (Tivantinib; 0.1 µM) | relative viability (Crenolanib; 0.01 µM) | relative viability (Crenolanib; 0.03162 µM) | relative viability (Crenolanib; 0.1 µM) | relative viability (Crenolanib; 0.3162 µM) | relative viability (Crenolanib; 1 µM) | relative viability (Tivantinib; 0.3162 µM)
H3255 | 0.607 | 0.419 | 0.421 | 0.501 | 0.492 | 0.935 | 0.851 | 0.84 | 0.877 | 1.06 | 0.971 | 0.934 | 1 | 1.02 | 0.935 | 0.929 | 0.984 | 0.918 | –
EBC-1 | 0.504 | 0.395 | 0.467 | 0.566 | 0.571 | 0.102 | 0.104 | 0.0945 | 0.106 | 0.115 | 1.05 | 0.859 | 0.933 | 1.06 | 0.961 | 0.989 | 1.03 | 1.03 | 0.994
NCI-H1975 | 1.18 | 1.02 | 0.954 | 1.17 | 1.24 | 1.06 | 0.969 | 0.847 | 0.94 | 1.04 | 1.02 | 0.956 | 0.837 | 1.1 | 0.977 | 0.907 | 0.887 | 0.838 | 0.825
NCI-H647 | 1.13 | 1.22 | 0.967 | 1.11 | 0.98 | 1.25 | 1.09 | 1.11 | 1.23 | 1.28 | 1.06 | 0.992 | 0.881 | 0.983 | 0.915 | 0.973 | 1 | 0.929 | 0.946
NCI-H441 | 0.487 | – | 0.815 | 0.639 | 0.683 | 1.13 | 1.05 | 0.775 | 0.951 | 0.958 | 0.902 | 1.22 | 0.9 | 1.08 | 1.11 | 0.987 | 1.13 | 0.928 | 0.939
NCI-H1355 | 1.08 | 0.897 | 0.999 | 1.22 | 0.825 | 1.02 | 1 | 0.94 | 1.07 | 0.906 | 1.01 | 0.921 | 0.973 | 1.07 | 0.994 | 0.955 | 1.03 | 0.856 | 1.01
NCI-H23 | 0.805 | 0.992 | 0.899 | 1.03 | 0.822 | 1.12 | 1.13 | 0.97 | 0.995 | 1.06 | 0.975 | 0.762 | 0.982 | 1.03 | 0.929 | 0.911 | 1 | 0.766 | 1
LC-2-ad | 0.492 | 0.48 | 0.367 | 0.647 | 0.54 | 1.1 | 1.1 | 0.858 | 0.971 | 0.823 | 0.977 | 0.933 | 0.934 | 1.01 | 0.982 | 0.94 | 0.976 | 0.866 | 1.01
SK-MES-1 | 1.4 | 1.4 | 1.25 | 1.45 | 1.2 | 1.05 | 0.876 | 0.974 | 0.936 | 1.14 | 1.06 | 0.912 | 0.91 | 1.05 | 1.01 | 0.973 | 1.06 | 0.936 | 0.915
NCI-H2170 | 0.612 | 0.549 | 0.65 | 0.665 | 0.579 | 0.961 | 0.989 | 0.719 | 0.99 | 1.02 | 1.01 | 0.922 | 0.921 | 0.998 | 1.04 | 0.943 | 1.01 | 1.01 | –
NCI-H2087 | 1.02 | 0.9 | 0.867 | 1.06 | 1.12 | 1.23 | 1.32 | 1.1 | 1.27 | 1.27 | 1.11 | 0.936 | 0.95 | 0.938 | 1.04 | 0.88 | 1.05 | 0.967 | 1.06
NCI-H838 | 1.19 | 1.16 | 1.21 | 1.2 | 1.02 | 1.11 | 1.03 | 1.04 | 1.16 | 1.06 | 0.952 | 0.962 | 0.798 | 1.03 | 0.975 | 0.946 | 0.964 | 0.749 | 0.932
NCI-H460 | 1.24 | 1.4 | 0.932 | 1.15 | 1.15 | 1.02 | 1.06 | 0.938 | 1 | 0.99 | 0.986 | 0.971 | 0.98 | 1 | 0.998 | 0.975 | 0.995 | 0.956 | 0.999
LU99A | 0.989 | 0.802 | 0.846 | 0.893 | 0.964 | 0.747 | 0.867 | 0.867 | 0.879 | 0.897 | 1.06 | 0.76 | 0.909 | 1.1 | 0.974 | 1.04 | 1 | 1.02 | 1.01
